Test results: patent US6358514B1, “Combination of a retinoid with a histidine derivative” (L'Oreal, priority 1998, dated 2002)

Type: physicochemical
Experimental: The stability of a retinoid is defined in accordance with the present invention by the percentage of the retinoid which remains in its original form after the composition comprising it has been stored for a given period and at a given temperature.
Test of stability of 0.3% all-trans retinol in a water/ethanol mixture stored at 45° C.
The conditions of the study are as follows: test compound at 0.1% (as weight/volume) in water/ethanol (40/60%) all-trans retinol sold by the company Fluka at 0.3% (as weight/volume) in water/ethanol (40/60%) aerobic medium with 55% by volume of air and 45% by volume of ethanol/water storage at 45° C. in amber-coloured bottles.
Degradation of the retinol under these conditions reaches 100% in 7 days of storage at 45° C. The storage conditions to which we subjected the compositions are particularly harsh.
The residual retinol content is monitored by HPLC (on a Spherisorb ODS1 C18 column, by elution with an H2O/CH3CO2H/CH3CO2NH4/acetonitrile mixture: 15/1/0.4/83.6) at 7 days (RT1) and 15 days (RT2) of storage at 45° C. in aerobic medium (55% by volume of air).

stabilization of retinol compared with the histidine derivatives	Degradation of the retinol (7 days, 0.3 % (weight/volume)) [%]	Compound
stabilizes retinol much less		NCCC(=O)N[C@@H](Cc1cnc[nH]1)C(=O)O [carnosine]
	100	CC1=C(/C=C/C(C)=C/C=C/C(C)=C/CO)C(C)(C)CCC1 [retinol, all-trans retinol]
